Laboratory results: US20230085307A1, “PYRIDAZINONE COMPOUND AND HERBICIDE” (NISSAN CHEMICAL CORPORATION, priority 2019, published 2023)

How the values were obtained:
barnyard grass [1] = experiment: Test Example 3: herbicidal effect by foliage application, Wagner pot (Table 18, symbol H); type: in vivo, barnyard grass (Echinochloa crus-galli)
In short: (§1)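 Plants were sown in alluvial soil held under 0.1–0.5 cm standing water and grown 14 days in a greenhouse at 25–30 °C. An emulsifiable formulation, water-diluted to the set dose, was then sprayed onto the foliage, and effects were scored three weeks later using previously defined criteria.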

Chinese sprangletop = experiment: Test Example 3: herbicidal effect by foliage application, Wagner pot (Table 18, symbol D); type: in vivo, chinese sprangletop (Leptochloa chinensis)
In short: as §1

rice flat sedge = experiment: Test Example 3: herbicidal effect by foliage application, Wagner pot (Table 18, symbol E); type: in vivo, rice flat sedge (Cyperus iria)
In short: as §1

southern crabgrass [2] = experiment: Test Example 4: herbicidal effect by soil treatment (Table 19, symbol F); type: in vivo, southern crabgrass (Digitaria ciliaris); conditions: amount of applied herbicide 320 g/ha
In short: (§2)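 In this soil treatment, the formulated compound reached the seeds only through the soil: seeds were buried about 1.5 cm deep in sterilized diluvial soil, then the diluted emulsion was sprayed over the surface. After three weeks at 25° C. to 30° C. in a greenhouse, effects were graded on criteria from an earlier test.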

green foxtail [3] = experiment: Test Example 4: herbicidal effect by soil treatment (Table 19, symbol G); type: in vivo, green foxtail (Setaria viridis); conditions: amount of applied herbicide 320 g/ha
In short: as §2

barnyard grass [4] = experiment: Test Example 4: herbicidal effect by soil treatment (Table 19, symbol H); type: in vivo, barnyard grass (Echinochloa crus-galli); conditions: amount of applied herbicide 320 g/ha
In short: as §2

wild oat [5] = experiment: Test Example 4: herbicidal effect by soil treatment (Table 19, symbol I); type: in vivo, wild oat (Avena fatua); conditions: amount of applied herbicide 320 g/ha
In short: as §2

blackgrass [6] = experiment: Test Example 4: herbicidal effect by soil treatment (Table 19, symbol J); type: in vivo, blackgrass (Alopecurus myosuroides); conditions: amount of applied herbicide 320 g/ha
In short: as §2

Italian ryegrass [7] = experiment: Test Example 4: herbicidal effect by soil treatment (Table 19, symbol K); type: in vivo, Italian ryegrass (Lolium multiflorum); conditions: amount of applied herbicide 320 g/ha
In short: as §2

windgrass [8] = experiment: Test Example 4: herbicidal effect by soil treatment (Table 19, symbol L); type: in vivo, windgrass (Apera spica-venti); conditions: amount of applied herbicide 320 g/ha
In short: as §2

velvetleaf [9] = experiment: Test Example 4: herbicidal effect by soil treatment (Table 19, symbol M); type: in vivo, velvetleaf (Abutilon theophrasti); conditions: amount of applied herbicide 320 g/ha
In short: as §2

redroot pigweed [10] = experiment: Test Example 4: herbicidal effect by soil treatment (Table 19, symbol N); type: in vivo, redroot pigweed (Amaranthus retroflexus); conditions: amount of applied herbicide 320 g/ha
In short: as §2

lambsquarters [11] = experiment: Test Example 4: herbicidal effect by soil treatment (Table 19, symbol O); type: in vivo, lambsquarters (Chenopodium album); conditions: amount of applied herbicide 320 g/ha
In short: as §2

chickweed [12] = experiment: Test Example 4: herbicidal effect by soil treatment (Table 19, symbol P); type: in vivo, common chickweed (Stellaria media); conditions: amount of applied herbicide 320 g/ha
In short: as §2

false cleavers [13] = experiment: Test Example 4: herbicidal effect by soil treatment (Table 19, symbol Q); type: in vivo, false cleavers (Galium spurium); conditions: amount of applied herbicide 320 g/ha
In short: as §2

persian speedwell [14] = experiment: Test Example 4: herbicidal effect by soil treatment (Table 19, symbol R); type: in vivo, Persian speedwell (Veronica persica); conditions: amount of applied herbicide 320 g/ha
In short: as §2

southern crabgrass [15] = experiment: Test Example 5: herbicidal effect by foliage application, plastic box (Table 20, symbol F); type: in vivo, southern crabgrass (Digitaria ciliaris); conditions: foliage application, 320 g/ha, three weeks after application
In short: (§3)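 Plants were sown into sterilized diluvial soil under about 1.5 cm cover and kept in a greenhouse at 25° C. to 30° C. Fourteen days on, foliage received an even spray of the diluted emulsion. Herbicidal or crop effect was judged three weeks afterwards.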

green foxtail [16] = experiment: Test Example 5: herbicidal effect by foliage application, plastic box (Table 20, symbol G); type: in vivo, green foxtail (Setaria viridis); conditions: foliage application, 320 g/ha, three weeks after application
In short: as §3

barnyard grass [17] = experiment: Test Example 5: herbicidal effect by foliage application, plastic box (Table 20, symbol H); type: in vivo, barnyard grass (Echinochloa crus-galli); conditions: foliage application, 320 g/ha, three weeks after application
In short: as §3

wild oat [18] = experiment: Test Example 5: herbicidal effect by foliage application, plastic box (Table 20, symbol I); type: in vivo, wild oat (Avena fatua); conditions: foliage application, 320 g/ha, three weeks after application
In short: as §3

blackgrass [19] = experiment: Test Example 5: herbicidal effect by foliage application, plastic box (Table 20, symbol J); type: in vivo, blackgrass (Alopecurus myosuroides); conditions: foliage application, 320 g/ha, three weeks after application
In short: as §3

Italian ryegrass [20] = experiment: Test Example 5: herbicidal effect by foliage application, plastic box (Table 20, symbol K); type: in vivo, Italian ryegrass (Lolium multiflorum); conditions: foliage application, 320 g/ha, three weeks after application
In short: as §3

windgrass [21] = experiment: Test Example 5: herbicidal effect by foliage application, plastic box (Table 20, symbol L); type: in vivo, windgrass (Apera spica-venti); conditions: foliage application, 320 g/ha, three weeks after application
In short: as §3

velvetleaf [22] = experiment: Test Example 5: herbicidal effect by foliage application, plastic box (Table 20, symbol M); type: in vivo, velvetleaf (Abutilon theophrasti); conditions: foliage application, 320 g/ha, three weeks after application
In short: as §3

redroot pigweed [23] = experiment: Test Example 5: herbicidal effect by foliage application, plastic box (Table 20, symbol N); type: in vivo, redroot pigweed (Amaranthus retroflexus); conditions: foliage application, 320 g/ha, three weeks after application
In short: as §3

lambsquarters [24] = experiment: Test Example 5: herbicidal effect by foliage application, plastic box (Table 20, symbol O); type: in vivo, lambsquarters (Chenopodium album); conditions: foliage application, 320 g/ha, three weeks after application
In short: as §3

chickweed [25] = experiment: Test Example 5: herbicidal effect by foliage application, plastic box (Table 20, symbol P); type: in vivo, common chickweed (Stellaria media); conditions: foliage application, 320 g/ha, three weeks after application
In short: as §3

false cleavers [26] = experiment: Test Example 5: herbicidal effect by foliage application, plastic box (Table 20, symbol Q); type: in vivo, false cleavers (Galium spurium); conditions: foliage application, 320 g/ha, three weeks after application
In short: as §3

persian speedwell [27] = experiment: Test Example 5: herbicidal effect by foliage application, plastic box (Table 20, symbol R); type: in vivo, Persian speedwell (Veronica persica); conditions: foliage application, 320 g/ha, three weeks after application
In short: as §3

[28] = amount of applied herbicide 320 g/ha

| Structure (SMILES) | F: southern crabgrass, herbicidal effect grade (southern crabgrass [2]) | G: green foxtail, herbicidal effect grade (green foxtail [3]) | H: barnyard grass, herbicidal effect grade (barnyard grass [4]) | I: wild oat, herbicidal effect grade (wild oat [5]) | J: blackgrass, herbicidal effect grade (blackgrass [6]) | K: Italian ryegrass, herbicidal effect grade (Italian ryegrass [7]) | L: windgrass, herbicidal effect grade (windgrass [8]) | M: velvetleaf, herbicidal effect grade (velvetleaf [9]) | N: redroot pigweed, herbicidal effect grade (redroot pigweed [10]) | O: lambsquarters, herbicidal effect grade (lambsquarters [11]) | P: chickweed, herbicidal effect grade (chickweed [12]) | Q: false cleavers, herbicidal effect grade (false cleavers [13]) | R: persian speedwell, herbicidal effect grade (persian speedwell [14]) | F: southern crabgrass, herbicidal effect grade (southern crabgrass [15]) | G: green foxtail, herbicidal effect grade (green foxtail [16]) | H: barnyard grass, herbicidal effect grade (barnyard grass [17]) | I: wild oat, herbicidal effect grade (wild oat [18]) | J: blackgrass, herbicidal effect grade (blackgrass [19]) | K: Italian ryegrass, herbicidal effect grade (Italian ryegrass [20]) | L: windgrass, herbicidal effect grade (windgrass [21]) | also measured |
| --- | --- | --- | --- | --- | --- | --- | --- | --- | --- | --- | --- | --- | --- | --- | --- | --- | --- | --- | --- | --- | --- |
| CCCC(=O)Oc1c(C)nn(C)c(=O)c1-c1c(-c2ccc(F)cc2)sc2cc(Cl)ccc12 [3-032] | 0 (Herbicidal rate of 5% or less (almost no effect)) | 0 (Herbicidal rate of 5% or less (almost no effect)) | 0 (Herbicidal rate of 5% or less (almost no effect)) | 0 (Herbicidal rate of 5% or less (almost no effect)) | 0 (Herbicidal rate of 5% or less (almost no effect)) | 0 (Herbicidal rate of 5% or less (almost no effect)) | 3 (Herbicidal rate of 40% or more and less than 70%) | 0 (Herbicidal rate of 5% or less (almost no effect)) | 4 (Herbicidal rate of 70% or more and less than 90%) | 4 (Herbicidal rate of 70% or more and less than 90%) | 4 (Herbicidal rate of 70% or more and less than 90%) | 3 (Herbicidal rate of 40% or more and less than 70%) | 5 (Herbicidal rate of 90% or more (almost completely withered)) | 4 (Herbicidal rate of 70% or more and less than 90%) | 4 (Herbicidal rate of 70% or more and less than 90%) | 4 (Herbicidal rate of 70% or more and less than 90%) | 5 (Herbicidal rate of 90% or more (almost completely withered)) | 4 (Herbicidal rate of 70% or more and less than 90%) | 4 (Herbicidal rate of 70% or more and less than 90%) | 5 (Herbicidal rate of 90% or more (almost completely withered)) | herbicidal effect on H: barnyard grass (barnyard grass [1]; [28]): 5 (Herbicidal rate of 90% or more (almost completely withered)); herbicidal effect on D: Chinese sprangletop (Chinese sprangletop; [28]): 3 (Herbicidal rate of 40% or more and less than 70%); herbicidal effect on E: rice flat sedge (rice flat sedge; [28]): 3 (Herbicidal rate of 40% or more and less than 70%); M: velvetleaf, herbicidal effect grade (velvetleaf [22]): 4 (Herbicidal rate of 70% or more and less than 90%); N: redroot pigweed, herbicidal effect grade (redroot pigweed [23]): 5 (Herbicidal rate of 90% or more (almost completely withered)); O: lambsquarters, herbicidal effect grade (lambsquarters [24]): 4 (Herbicidal rate of 70% or more and less than 90%); P: chickweed, herbicidal effect grade (chickweed [25]): 5 (Herbicidal rate of 90% or more (almost completely withered)); Q: false cleavers, herbicidal effect grade (false cleavers [26]): 0 (Herbicidal rate of 5% or less (almost no effect)); R: persian speedwell, herbicidal effect grade (persian speedwell [27]): 5 (Herbicidal rate of 90% or more (almost completely withered)) |
| CCCC(=O)Oc1c(C)nn(C)c(=O)c1-c1c(-c2ccc(OC)cc2)sc2cc(Cl)ccc12 [3-038] | 0 (Herbicidal rate of 5% or less (almost no effect)) | 0 (Herbicidal rate of 5% or less (almost no effect)) | 0 (Herbicidal rate of 5% or less (almost no effect)) | 0 (Herbicidal rate of 5% or less (almost no effect)) | 0 (Herbicidal rate of 5% or less (almost no effect)) | 0 (Herbicidal rate of 5% or less (almost no effect)) | 0 (Herbicidal rate of 5% or less (almost no effect)) | 0 (Herbicidal rate of 5% or less (almost no effect)) | 1 (Herbicidal rate of 5% or more and less than 20%) | 3 (Herbicidal rate of 40% or more and less than 70%) | 1 (Herbicidal rate of 5% or more and less than 20%) | 0 (Herbicidal rate of 5% or less (almost no effect)) | 2 (Herbicidal rate of 20% or more and less than 40%) | 0 (Herbicidal rate of 5% or less (almost no effect)) | 0 (Herbicidal rate of 5% or less (almost no effect)) | 0 (Herbicidal rate of 5% or less (almost no effect)) | 0 (Herbicidal rate of 5% or less (almost no effect)) | 0 (Herbicidal rate of 5% or less (almost no effect)) | 0 (Herbicidal rate of 5% or less (almost no effect)) | 0 (Herbicidal rate of 5% or less (almost no effect)) | herbicidal effect on barnyard grass (H) (barnyard grass [1]; 320 g/ha): 3 (Herbicidal rate of 40% or more and less than 70%); herbicidal effect on Chinese sprangletop (D) (Chinese sprangletop; 320 g/ha): 1 (Herbicidal rate of 5% or more and less than 20%); herbicidal effect on rice flat sedge (E) (rice flat sedge; 320 g/ha): 3 (Herbicidal rate of 40% or more and less than 70%); M: velvetleaf, herbicidal effect grade (velvetleaf [22]): 3 (Herbicidal rate of 40% or more and less than 70%); N: redroot pigweed, herbicidal effect grade (redroot pigweed [23]): 1 (Herbicidal rate of 5% or more and less than 20%); O: lambsquarters, herbicidal effect grade (lambsquarters [24]): 3 (Herbicidal rate of 40% or more and less than 70%); P: chickweed, herbicidal effect grade (chickweed [25]): 3 (Herbicidal rate of 40% or more and less than 70%); Q: false cleavers, herbicidal effect grade (false cleavers [26]): 0 (Herbicidal rate of 5% or less (almost no effect)); R: persian speedwell, herbicidal effect grade (persian speedwell [27]): 3 (Herbicidal rate of 40% or more and less than 70%) |
